# Laboratory results from patent publication US20170007562A1, “Use of Guanidinoacetic Acid and/or Creatine for Increasing the Hatch Rate” (EVONIK DEGUSSA GMBH, priority 2014, published 2017).
# Experiments:
# [1] = system: parent quails / quail eggs; experiment: Effect of guanidinoacetic acid in parent feed on total fertility, hatching rate and embryo mortality of quail eggs; type: in vivo; details: for Total fertility: eggs of quails aged 29 weeks; for Hatching rate: hatched quails to incubated eggs
# Description: 240 parent quails aged 25 weeks were randomly assigned to 5 different rations. Each ration had in each case 8 cages assigned to it, each of which contained a total of 6 birds (4 females, 2 males). Each of the cages was exposed to 17 hours light (natural and artificial), followed by 7 hours dark.
# The basic feed employed was a mixture which consisted essentially of maize meal and extracted soybean meal (see table 1). Guanidinoacetic acid (GAA) was added to the basic feed in 4 different amounts (0.06; 0.12; 0.18; 0.24% by weight) giving in total 5 different feed mixtures—with the basic feed without guanidinoacetic acid as reference. The inert constituents of the basic feed were in each case partially substituted by the added guanidinoacetic acid. Guanidinoacetic acid was employed in the form of the commercial product CreAMINO® (96% GAA, Evonik Industries, Germany). During the experiment, the feed was administered ad lib in the form of a meal. Furthermore, the birds were also supplied with sufficient water.
# When the quails had reached an age of 29 weeks, the eggs laid were collected on seven successive days and stored for six days in a room at a temperature of 20° C. Thereafter, in each case 196 eggs per ration were incubated in an automatic hatcher. After incubation for 15 days in the hatcher, the eggs were transferred into a hatching room with a temperature of 37° C. and relative atmospheric humidity of 65%. After two days in the hatching room, the hatching rate was determined as the ratio of hatched quails to the number of incubated eggs. Equally, the total fertility was determined as the ratio of fertilized eggs to the total number of incubated eggs. Furthermore, the hatching rate of fertilized eggs was determined as the ratio of hatched quails to the number of fertilized eggs. Furthermore, the embryo mortality, too, was determined. Finally, the guanidinoacetic acid, creatine and creatinine contents in the obtained eggs were determined.
# hatched quail chicks = experiment: Effect of GAA feeding of the parent animals on the properties of the hatched chicks; type: in vivo, quails; details: for Feed conversion / Weight gain / total feed intake, days 1–35: GAA-free ration, days 1 to 35; for Weight on day 1: chicks on GAA-free ration
# Text: Finally, the effect of GAA feeding of the parent animals on the properties of the hatched chicks was also studied. To this end, in each case 80 chicks which had been obtained subsequently to feeding the parent animals with the respective ratios were subjected to a two-step feeding programme. Here, the chicks were subjected to a GAA-free ration. Here, all chicks were given the same feed. The feeding stuff of the chicks for the first three weeks and for weeks four to five can be seen from Table 1. The data determined were chick weight on the day of hatching, chick performance (feed intake, weight increase and feed conversion) and creatine content in the muscle tissue of the freshly hatched chicks.
# [2] = system: parent broilers (Cobb 500); experiment: Effect of guanidinoacetic acid on egg production, fertility and hatching rate of hatchery eggs of parent broilers; type: in vivo; details: week 50 to 60
# Text: 120 parent broilers (Cobb 500) were randomly assigned to 5 different 10-week feeding measures from week 50 to week 60 of their lives. In each case 6 cages, each of which contained a total of 4 parent hens were subjected to each feeding measure. The basic feed employed was a mixture consisting essentially of maize meal and soybean meal (Table 5). […] In this context, in each case the inert constituents of the basic feed were substituted to some extent by the added guanidinoacetic acid. Guanidinoacetic acid was employed in the form of the commercial product CreAMINO® (96% GAA, Evonik Industries, Germany). The parent animals were given the feed meal as per instructions of the Cobb Breeder Management Guide. In week 60 of their lives, the hens were twice artificially inseminated, the second insemination taking place 4 days after the first one. The semen used for the insemination was obtained from cockerels which had not been fed GAA. The semen was obtained by using abdominal massage. The semen obtained was collected and the sperm cell concentration was determined in order to ensure that all hens were inseminated with the same number and the same volume of sperm cells. After carrying out the insemination, the laid eggs were collected on 10 successive days. The eggs obtained were finally incubated under identical conditions, and the egg production rate, fertility and hatching rate of the fertilized eggs were subsequently determined.
# eggs = details: prior art, Halle et al, Landbauforschung Völkenrode (2006); cited from earlier work
# [3] = 0.06% by weight GAA in parent feed
# [4] = 0.06% by weight GAA in parent feed, quails
# [5] = 0.12% by weight GAA in parent feed
# [6] = 0.12% by weight GAA in parent feed, quails
# [7] = 0.18% by weight GAA in parent feed
# [8] = 0.18% by weight GAA in parent feed, quails
# [9] = 0.24% by weight GAA in parent feed
# [10] = 0.24% by weight GAA in parent feed, quails
# [11] = square regression analysis, quails
# [12] = chicks of parents fed 0.06% by weight GAA
# [13] = chicks of parents fed 0.12% by weight GAA
# [14] = chicks of parents fed 0.18% by weight GAA
# [15] = chicks of parents fed 0.24% by weight GAA
# [16] = 0.04% by weight guanidinoacetic acid in feed
# [17] = 0.08% by weight guanidinoacetic acid in feed
# [18] = 0.12% by weight guanidinoacetic acid in feed
# [19] = 0.16% by weight guanidinoacetic acid in feed
smiles,measurement,setting,value
"N=C(N)NCC(=O)O [GAA, Guanidinoacetic acid]",Total fertility,[1]; [3],95.27 ± 1.81%
same,Hatching rate,[1]; [3],76.52 ± 3.78%
same,Hatching rate of the fertilized eggs,[1]; [4],80.19 ± 3.07%
same,Mortality (embryo mortality),[1]; [4],18.75 ± 2.76%
same,Total fertility,[1]; [5],97.05 ± 1.51%
same,Hatching rate,[1]; [5],90.69 ± 2.10%
same,Hatching rate of the fertilized eggs,[1]; [6],93.49 ± 2.04%
same,Mortality (embryo mortality),[1]; [6],6.40 ± 1.96%
same,Total fertility,[1]; [7],98.32 ± 0.82%
same,Hatching rate,[1]; [7],87.39 ± 3.20%
same,Hatching rate of the fertilized eggs,[1]; [8],88.94 ± 3.33%
same,Mortality (embryo mortality),[1]; [8],10.92 ± 3.32%
same,Total fertility,[1]; [9],94.02 ± 1.29%
same,Hatching rate,[1]; [9],81.38 ± 2.50%
same,Hatching rate of the fertilized eggs,[1]; [10],86.51 ± 2.03%
same,Mortality (embryo mortality),[1]; [10],12.64 ± 1.89%
same,dosage from which the observed effects were significantly increased,[1]; quails,above 0.1 % by weight
same,optimum range of feeding the parent animals,[1]; quails,0.12-0.18 % by weight
same,optimum value for GAA supplementation in terms of the hatching rate,[1]; [11],0.15 % by weight
same,optimum value for GAA supplementation in terms of the hatching rate of fertilized eggs,[1]; [11],0.16 % by weight
same,optimum value for GAA supplementation in terms of the mortality rate,[1]; [11],0.16 % by weight
same,optimum value for GAA supplementation in terms of the total reproduction,[1]; [11],0.14 % by weight
same,Feed conversion,hatched quail chicks; [12],3.248 ± 0.063 g/g
same,Weight gain,hatched quail chicks; [12],230.74 ± 7.6 g
same,"total feed intake, days 1–35",hatched quail chicks; [12],748 ± 11.1 g
same,Weight on day 1,hatched quail chicks; [12],9.60 ± 0.16 g
same,Feed conversion,hatched quail chicks; [13],3.414 ± 0.048 g/g
same,Weight gain,hatched quail chicks; [13],224.98 ± 2.9 g
same,"total feed intake, days 1–35",hatched quail chicks; [13],768 ± 11.1 g
same,Weight on day 1,hatched quail chicks; [13],9.74 ± 0.31 g
same,Feed conversion,hatched quail chicks; [14],3.305 ± 0.033 g/g
same,Weight gain,hatched quail chicks; [14],217.22 ± 0.6 g
same,"total feed intake, days 1–35",hatched quail chicks; [14],718 ± 8.95 g
same,Weight on day 1,hatched quail chicks; [14],9.65 ± 0.16 g
same,Feed conversion,hatched quail chicks; [15],3.455 ± 0.090 g/g
same,Weight gain,hatched quail chicks; [15],222.86 ± 1.9 g
same,"total feed intake, days 1–35",hatched quail chicks; [15],770 ± 26.1 g
same,Weight on day 1,hatched quail chicks; [15],9.41 ± 0.17 g
same,Creatine in the muscle,hatched quail chicks; freshly hatched chicks of parents fed 0.06% by weight GAA,0.541 ± 0.026 mg/g
same,Creatine in the muscle,hatched quail chicks; freshly hatched chicks of parents fed 0.12% by weight GAA,0.489 ± 0.058 mg/g
same,Creatine in the muscle,hatched quail chicks; freshly hatched chicks of parents fed 0.18% by weight GAA,0.481 ± 0.040 mg/g
same,Creatine in the muscle,hatched quail chicks; freshly hatched chicks of parents fed 0.24% by weight GAA,0.433 ± 0.033 mg/g
same,Egg production,[2]; [16],50.42%
same,Fertility,[2]; [16],85.15%
same,Hatching rate (of fertilized eggs),[2]; [16],65.59%
same,Egg production,[2]; [17],53.18%
same,Fertility,[2]; [17],96.51%
same,Hatching rate (of fertilized eggs),[2]; [17],83.76%
same,Egg production,[2]; [18],53.44%
same,Fertility,[2]; [18],96.43%
same,Hatching rate (of fertilized eggs),[2]; [18],83.95%
same,Egg production,[2]; [19],50.50%
same,Fertility,[2]; [19],81.76%
same,Hatching rate (of fertilized eggs),[2]; [19],65.04%
CN(CC(=O)O)C(=N)N [creatine],effect on the hatching rate,eggs,no effect
